Source: PubChem BioAssay AID256 (DTP/NCI, 2004)
Several values for one entry are separate records, joined by “and”; a condition that tells them apart may be missing. Identical values can stand only once. Inconclusive results and toxic doses are left out. The calls were made as follows: active = survival T/C of 150% or more; inactive = T/C below 125% in these data.

Tested on: CD2F1 mice, L1210 leukemia ip, survival T/C
Test: NCI In Vivo Anticancer Drug Screen. Data for tumor model L1210 Leukemia (intraperitoneal) in CD2F1 (CDF1) mice
Details: endpoint: mean survival time, higher = longer survival
Method in brief: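 Activity against a transplanted murine tumor was judged by comparing the compound group with a vehicle group. The outcome in the treated animals was divided by that in the controls.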

[1] = dose: 100.0 mg/kg/injection, schedule: Q04DX003 (ip), vehicle: saline with Tween-80
[2] = dose: 200.0 mg/kg/injection, schedule: Q04DX003 (ip), vehicle: saline with Tween-80
[3] = dose: 400.0 mg/kg/injection, schedule: Q04DX003 (ip), vehicle: saline with Tween-80
[4] = dose: 100.0 mg/kg/injection, schedule: Q01DX009 (ip), vehicle: Klucel (hydroxypropylcellulose) (HPC)
[5] = dose: 200.0 mg/kg/injection, schedule: Q01DX009 (ip), vehicle: Klucel (hydroxypropylcellulose) (HPC)

Measured: T/C

O=C1N[C@@H]([C@H]2CC[C@H](Cl)CN2)C(=O)N[C@H]1[C@H]1CC[C@H](Cl)CN1
active: dose: 0.5 mg/kg/injection, schedule: Q03HX016 (ip), vehicle: saline 151 % of control | dose: 0.5 mg/kg/injection, schedule: Q03HX024 (ip), vehicle: saline 196 % of control | dose: 1.0 mg/kg/injection, schedule: Q01DX009 (ip), vehicle: saline 167 % of control | dose: 1.0 mg/kg/injection, schedule: Q01DX009 (oral), vehicle: saline 160 % of control | dose: 1.0 mg/kg/injection, schedule: Q03HX008 (ip), vehicle: saline 305 % of control | dose: 1.0 mg/kg/injection, schedule: Q03HX016 (ip), vehicle: saline 252 % of control | dose: 1.0 mg/kg/injection, schedule: Q03HX024 (ip), vehicle: saline 300 % of control | dose: 2.0 mg/kg/injection, schedule: Q01DX009 (ip), vehicle: saline 223 % of control | dose: 2.0 mg/kg/injection, schedule: Q01DX009 (iv), vehicle: saline 160 % of control | dose: 2.0 mg/kg/injection, schedule: Q01DX009 (oral), vehicle: saline 158 % of control | dose: 2.0 mg/kg/injection, schedule: Q03HX008 (ip), vehicle: saline 354 % of control | dose: 2.0 mg/kg/injection, schedule: Q04DX003 (ip), vehicle: saline 171 % of control | dose: 2.5 mg/kg/injection, schedule: Q01DX001 (ip), vehicle: water 155 % of control | dose: 4.0 mg/kg/injection, schedule: Q01DX001 (ip), vehicle: saline 157 % of control | dose: 4.0 mg/kg/injection, schedule: Q01DX009 (iv), vehicle: saline 157 % of control | dose: 4.0 mg/kg/injection, schedule: Q04DX003 (ip), vehicle: saline 188 % of control and 221 % of control | dose: 4.0 mg/kg/injection, schedule: Q04DX003 (oral), vehicle: saline 156 % of control | dose: 4.0 mg/kg/injection, schedule: Q08DX002 (ip), vehicle: saline 179 % of control | dose: 5.0 mg/kg/injection, schedule: Q01DX001 (ip), vehicle: water 241 % of control and 269 % of control | dose: 6.0 mg/kg/injection, schedule: Q01DX001 (ip), vehicle: saline 261 % of control | dose: 6.7 mg/kg/injection, schedule: Q01DX001 (ip), vehicle: saline 188 % of control | dose: 8.0 mg/kg/injection, schedule: Q01DX001 (ip), vehicle: saline 286 % of control and 501 % of control | dose: 8.0 mg/kg/injection, schedule: Q01DX001 (iv), vehicle: saline 157 % of control | dose: 8.0 mg/kg/injection, schedule: Q01DX001 (oral), vehicle: saline 154 % of control and 175 % of control | dose: 8.0 mg/kg/injection, schedule: Q01DX001 (sc), vehicle: saline 162 % of control | dose: 8.0 mg/kg/injection, schedule: Q04DX003 (ip), vehicle: saline 246 % of control | dose: 8.0 mg/kg/injection, schedule: Q04DX003 (oral), vehicle: saline 164 % of control | dose: 8.0 mg/kg/injection, schedule: Q08DX002 (ip), vehicle: saline 415 % of control | dose: 8.0 mg/kg/injection, schedule: Q08DX002 (oral), vehicle: saline 155 % of control | dose: 10.0 mg/kg/injection, schedule: Q01DX001 (ip), vehicle: water 296 % of control and 349 % of control | dose: 16.0 mg/kg/injection, schedule: Q01DX001 (iv), vehicle: saline 212 % of control
inactive: dose: 0.25 mg/kg/injection, schedule: Q01DX009 (iv), vehicle: saline 100 % of control | dose: 0.25 mg/kg/injection, schedule: Q03HX016 (ip), vehicle: saline 115 % of control | dose: 0.5 mg/kg/injection, schedule: Q01DX009 (iv), vehicle: saline 112 % of control | dose: 0.5 mg/kg/injection, schedule: Q01DX009 (oral), vehicle: saline 108 % of control | dose: 1.0 mg/kg/injection, schedule: Q01DX001 (iv), vehicle: saline 108 % of control | dose: 1.0 mg/kg/injection, schedule: Q04DX003 (oral), vehicle: saline 116 % of control | dose: 1.0 mg/kg/injection, schedule: Q08DX002 (ip), vehicle: saline 120 % of control | dose: 2.0 mg/kg/injection, schedule: Q01DX001 (iv), vehicle: saline 109 % of control | dose: 2.0 mg/kg/injection, schedule: Q01DX001 (oral), vehicle: saline 111 % of control | dose: 2.0 mg/kg/injection, schedule: Q01DX001 (sc), vehicle: saline 123 % of control | dose: 2.0 mg/kg/injection, schedule: Q03HX016 (ip), vehicle: saline 95 % of control | dose: 2.0 mg/kg/injection, schedule: Q03HX024 (ip), vehicle: saline 93 % of control | dose: 2.0 mg/kg/injection, schedule: Q04DX003 (oral), vehicle: saline 119 % of control | dose: 2.0 mg/kg/injection, schedule: Q08DX002 (oral), vehicle: saline 117 % of control | dose: 4.0 mg/kg/injection, schedule: Q01DX001 (oral), vehicle: saline 124 % of control | dose: 4.0 mg/kg/injection, schedule: Q01DX009 (ip), vehicle: saline 107 % of control | dose: 4.0 mg/kg/injection, schedule: Q01DX009 (oral), vehicle: saline 86 % of control | dose: 16.0 mg/kg/injection, schedule: Q01DX001 (oral), vehicle: saline 100 % of control | dose: 16.0 mg/kg/injection, schedule: Q01DX001 (sc), vehicle: saline 94 % of control | dose: 16.0 mg/kg/injection, schedule: Q04DX003 (ip), vehicle: saline 94 % of control and 95 % of control | dose: 16.0 mg/kg/injection, schedule: Q04DX003 (oral), vehicle: saline 90 % of control | dose: 16.0 mg/kg/injection, schedule: Q08DX002 (ip), vehicle: saline 100 % of control | dose: 16.0 mg/kg/injection, schedule: Q08DX002 (oral), vehicle: saline 90 % of control

CSc1nccc2ccccc12
inactive: dose: 12.5 mg/kg/injection, schedule: Q01DX009 (ip), vehicle: other 106 % of control | dose: 25.0 mg/kg/injection, schedule: Q01DX009 (ip), vehicle: other 106 % of control | dose: 50.0 mg/kg/injection, schedule: Q01DX009 (ip), vehicle: other 106 % of control | dose: 100.0 mg/kg/injection, schedule: Q01DX009 (ip), vehicle: other 106 % of control

CC(=O)N1NC2C(=O)N(C3CCCCC3)CC2C1c1ccc(N(C)C)cc1 (stereo unspecified)
inactive: dose: 100.0 mg/kg/injection, schedule: Q01DX001 (ip), vehicle: saline with Tween-80 100 % of control | dose: 100.0 mg/kg/injection, schedule: Q04DX002 (ip), vehicle: saline with Tween-80 103 % of control | dose: 200.0 mg/kg/injection, schedule: Q01DX001 (ip), vehicle: saline with Tween-80 100 % of control | dose: 200.0 mg/kg/injection, schedule: Q04DX002 (ip), vehicle: saline with Tween-80 100 % of control | dose: 400.0 mg/kg/injection, schedule: Q01DX001 (ip), vehicle: saline with Tween-80 100 % of control | dose: 400.0 mg/kg/injection, schedule: Q04DX002 (ip), vehicle: saline with Tween-80 92 % of control

O=C1NCCCN1O
inactive: dose: 100.0 mg/kg/injection, schedule: Q04DX003 (ip), vehicle: saline 104 % of control | dose: 200.0 mg/kg/injection, schedule: Q04DX003 (ip), vehicle: saline 100 % of control | dose: 400.0 mg/kg/injection, schedule: Q04DX003 (ip), vehicle: saline 112 % of control

CCC1OC2CS(=O)(=O)CC2O1 (stereo unspecified)
inactive: [1] 96 % of control | [2] 96 % of control | [3] 96 % of control

CCCNC(=O)Oc1ccc(Br)cc1Br
inactive: dose: 50.0 mg/kg/injection, schedule: Q01DX009 (ip), vehicle: Klucel (hydroxypropylcellulose) (HPC) 108 % of control | [4] 97 % of control | [5] 94 % of control

Nc1ncnc2c1ncn2C1C=C(CO)C(O)C1O (stereo unspecified)
inactive: dose: 0.25 mg/kg/injection, schedule: Q01DX009 (ip), vehicle: Klucel (hydroxypropylcellulose) (HPC) 122 % of control | dose: 0.5 mg/kg/injection, schedule: Q01DX009 (ip), vehicle: Klucel (hydroxypropylcellulose) (HPC) 113 % of control and 123 % of control | dose: 1.0 mg/kg/injection, schedule: Q01DX009 (ip), vehicle: Klucel (hydroxypropylcellulose) (HPC) 124 % of control | dose: 4.0 mg/kg/injection, schedule: Q01DX009 (ip), vehicle: Klucel (hydroxypropylcellulose) (HPC) 122 % of control

COc1ccc(C(=O)CC(=O)Nc2ccc([N+](=O)[O-])cc2)cc1
inactive: [4] 98 % of control | [1] 107 % of control | [5] 97 % of control | [2] 102 % of control | dose: 400.0 mg/kg/injection, schedule: Q01DX009 (ip), vehicle: Klucel (hydroxypropylcellulose) (HPC) 97 % of control | [3] 101 % of control

CCCCOB(OCCCC)OCCCC
inactive: [1] 98 % of control | [2] 93 % of control | [3] 103 % of control
